The series is described as follows: UV-metric pKa measurement with methanol cosolvent. The format is physicochemical. The settings on record: Yasuda-Shedlovsky extrapolation to 0% methanol from psKa in ISA methanol:water mixtures, 25.0 ± 0.5 °C, ~150 mM KCl, mean ± SEM of three replicates.

For the compound `FC(F)(F)c1cccc(Nc2ncnc3ccccc23)c1` [SM02], the pKa1 is 5.03 ± 0.01. Next, `COc1cccc(Nc2ncnc3ccccc23)c1.Cl` [SM09]: 5.37 ± 0.01.

(Values after paper PMC6367941 (Journal of computer-aided molecular design, 2018).)
